Results published in ChEMBL document CHEMBL3885861, “Open TG-GATES”.

Organism: Rattus norvegicus
Experiment: Open TG-GATES - Regimen: Daily Repeat
Type: toxicity, organism-based, Sprague-Dawley
Parameters: regimen Daily Repeat, gender Male, age 6 weeks
Conditions: in vivo, po, 1000 mg/kg, route gavage, dose level High; for APTT / Bas / Eos / Fbg / Hb / Ht / Lym / MCH / MCHC / MCV / Mono / Neu / PT / Plat / RBC / Ret / WBC: tissue Blood; for KIDNEY_L / KIDNEY_R / KIDNEY_TOTAL: tissue Kidney; for LIVER: tissue Liver; for A/G / ALP / ALT / AST / BUN / CRE / Ca / Cl / DBIL / GLC / IP / K / LDH / Na / PL / RALB / TBIL / TC / TG / TP / gamma-GTP: tissue Plasma

Compound `CC(C)(S)[C@@H](N)C(=O)O` [PENICILLAMINE] has a TERMINAL_BW (72 h, time 3 day) of 225.3 g, an APTT (72 h, time 3 day) of 20.2 s and a Bas (72 h, time 3 day) of 0%. For the same compound, the Eos (72 h, time 3 day) was 1.2%, the Fbg (72 h, time 3 day) was 286.4 mg/dL and the Hb (72 h, time 3 day) was 13.2 g/dL. For the same compound, the Ht (72 h, time 3 day) was 40.3%, the Lym (72 h, time 3 day) was 78.6% and the MCH (72 h, time 3 day) was 20.1 pg. The MCHC (72 h, time 3 day) was 32.7%, the MCV (72 h, time 3 day) was 61.6 fL and the Mono (72 h, time 3 day) was 2.6%. The Neu (72 h, time 3 day) was 16.8%, the PT (72 h, time 3 day) was 14.4 s and the Plat (72 h, time 3 day) was 121.8 x10_4/uL. For the same compound, the RBC (72 h, time 3 day) was 657.4 x10_4/ul, the Ret (72 h, time 3 day) was 6.2% and the WBC (72 h, time 3 day) was 87.8 x10_2/uL. It also gave a KIDNEY_L (72 h, time 3 day) of 1 g, a KIDNEY_R (72 h, time 3 day) of 1 g and a KIDNEY_TOTAL (72 h, time 3 day) of 2 g. The LIVER (72 h, time 3 day) was 9.8 g, the A/G (72 h, time 3 day) was 1 and the ALP (72 h, time 3 day) was 1073 IU/L. For the same compound, the ALT (72 h, time 3 day) was 38 IU/L, the AST (72 h, time 3 day) was 60.8 IU/L and the BUN (72 h, time 3 day) was 13.2 mg/dL. For the same compound, the CRE (72 h, time 3 day) was 0.2 mg/dL, the Ca (72 h, time 3 day) was 10.7 mg/dL and the Cl (72 h, time 3 day) was 105.8 meq/L. The DBIL (72 h, time 3 day) was 0.012 mg/dL, the GLC (72 h, time 3 day) was 166 mg/dL and the IP (72 h, time 3 day) was 7.5 mg/dL. It also gave a K (72 h, time 3 day) of 4.1 meq/L, an LDH (72 h, time 3 day) of 94.2 IU/L and a Na (72 h, time 3 day) of 144.2 meq/L. The PL (72 h, time 3 day) was 143 mg/dL, the RALB (72 h, time 3 day) was 2.8 g/dL and the TBIL (72 h, time 3 day) was 0.038 mg/dL. The TC (72 h, time 3 day) was 74.8 mg/dL, the TG (72 h, time 3 day) was 50.4 mg/dL and the TP (72 h, time 3 day) was 5.7 g/dL. For the same compound, the gamma-GTP (72 h, time 3 day) was 0.8 IU/L, the TERMINAL_BW ([…], time 7 day) was 247.8 g and the TERMINAL_BW ([…], time 14 day) was 282 g. The TERMINAL_BW ([…], time 28 day) was 342.2 g, the APTT ([…], time 7 day) was 21.8 s and the Bas ([…], time 7 day) was 0%. For the same compound, the Eos ([…], time 7 day) was 1.4%, the Fbg ([…], time 7 day) was 452.4 mg/dL and the Hb ([…], time 7 day) was 13.2 g/dL. It also gave a Ht ([…], time 7 day) of 40.6%, a Lym ([…], time 7 day) of 79.2% and an MCH ([…], time 7 day) of 19.2 pg. It also gave an MCHC ([…], time 7 day) of 32.5%, an MCV ([…], time 7 day) of 59 fL and a Mono ([…], time 7 day) of 3%. For the same compound, the Neu ([…], time 7 day) was 15%, the PT ([…], time 7 day) was 14.6 s and the Plat ([…], time 7 day) was 131.3 x10_4/uL. It also gave an RBC ([…], time 7 day) of 687.8 x10_4/ul, a Ret ([…], time 7 day) of 4.6% and a WBC ([…], time 7 day) of 104.2 x10_2/uL. For the same compound, the APTT ([…], time 14 day) was 22.3 s, the Bas ([…], time 14 day) was 0% and the Eos ([…], time 14 day) was 1.2%. For the same compound, the Fbg ([…], time 14 day) was 520.8 mg/dL, the Hb ([…], time 14 day) was 13.1 g/dL and the Ht ([…], time 14 day) was 39.8%. The Lym ([…], time 14 day) was 82.6%, the MCH ([…], time 14 day) was 18.7 pg and the MCHC ([…], time 14 day) was 32.9%. For the same compound, the MCV ([…], time 14 day) was 56.8 fL, the Mono ([…], time 14 day) was 2.2% and the Neu ([…], time 14 day) was 13.2%. It also gave a PT ([…], time 14 day) of 15.3 s, a Plat ([…], time 14 day) of 164 x10_4/uL and an RBC ([…], time 14 day) of 701 x10_4/ul. It also gave a Ret ([…], time 14 day) of 4.9%, a WBC ([…], time 14 day) of 115.3 x10_2/uL and an APTT ([…], time 28 day) of 17.8 s. For the same compound, the Bas ([…], time 28 day) was 0.4%, the Eos ([…], time 28 day) was 1.8% and the Fbg ([…], time 28 day) was 646.8 mg/dL. For the same compound, the Hb ([…], time 28 day) was 12.1 g/dL, the Ht ([…], time 28 day) was 37.3% and the Lym ([…], time 28 day) was 71.2%. The MCH ([…], time 28 day) was 16.1 pg, the MCHC ([…], time 28 day) was 32.4% and the MCV ([…], time 28 day) was 49.8 fL. The Mono ([…], time 28 day) was 4.2%, the Neu ([…], time 28 day) was 21.6% and the PT ([…], time 28 day) was 15.7 s. The Plat ([…], time 28 day) was 156.3 x10_4/uL, the RBC ([…], time 28 day) was 749.2 x10_4/ul and the Ret ([…], time 28 day) was 5.6%. The WBC ([…], time 28 day) was 153.3 x10_2/uL, the KIDNEY_L ([…], time 7 day) was 1.1 g and the KIDNEY_R ([…], time 7 day) was 1.1 g. The KIDNEY_TOTAL ([…], time 7 day) was 2.1 g, the KIDNEY_L ([…], time 14 day) was 1.2 g and the KIDNEY_R ([…], time 14 day) was 1.2 g. The KIDNEY_TOTAL ([…], time 14 day) was 2.3 g, the KIDNEY_L ([…], time 28 day) was 1.4 g and the KIDNEY_R ([…], time 28 day) was 1.4 g. It also gave a KIDNEY_TOTAL ([…], time 28 day) of 2.8 g, an LIVER ([…], time 7 day) of 10.7 g and an LIVER ([…], time 14 day) of 11.8 g. The LIVER ([…], time 28 day) was 14.6 g, the A/G ([…], time 7 day) was 0.9 and the ALP ([…], time 7 day) was 1010.8 IU/L. The ALT ([…], time 7 day) was 37 IU/L, the AST ([…], time 7 day) was 49.6 IU/L and the BUN ([…], time 7 day) was 15.2 mg/dL. For the same compound, the CRE ([…], time 7 day) was 0.2 mg/dL, the Ca ([…], time 7 day) was 10.8 mg/dL and the Cl ([…], time 7 day) was 104.4 meq/L. For the same compound, the DBIL ([…], time 7 day) was 0.016 mg/dL, the GLC ([…], time 7 day) was 169.2 mg/dL and the IP ([…], time 7 day) was 6.9 mg/dL. For the same compound, the K ([…], time 7 day) was 3.8 meq/L, the LDH ([…], time 7 day) was 72.4 IU/L and the Na ([…], time 7 day) was 142.4 meq/L. For the same compound, the PL ([…], time 7 day) was 156.4 mg/dL, the RALB ([…], time 7 day) was 2.8 g/dL and the TBIL ([…], time 7 day) was 0.066 mg/dL. The TC ([…], time 7 day) was 86.8 mg/dL, the TG ([…], time 7 day) was 59.2 mg/dL and the TP ([…], time 7 day) was 5.9 g/dL. The gamma-GTP ([…], time 7 day) was 1 IU/L, the A/G ([…], time 14 day) was 0.9 and the ALP ([…], time 14 day) was 881.6 IU/L. For the same compound, the ALT ([…], time 14 day) was 37.2 IU/L, the AST ([…], time 14 day) was 52.4 IU/L and the BUN ([…], time 14 day) was 13 mg/dL. It also gave a CRE ([…], time 14 day) of 0.2 mg/dL, a Ca ([…], time 14 day) of 10.7 mg/dL and a Cl ([…], time 14 day) of 105.4 meq/L. It also gave a DBIL ([…], time 14 day) of 0.008 mg/dL, a GLC ([…], time 14 day) of 174.6 mg/dL and an IP ([…], time 14 day) of 6.7 mg/dL. It also gave a K ([…], time 14 day) of 3.8 meq/L, an LDH ([…], time 14 day) of 79.6 IU/L and a Na ([…], time 14 day) of 142.8 meq/L. For the same compound, the PL ([…], time 14 day) was 148.6 mg/dL, the RALB ([…], time 14 day) was 2.7 g/dL and the TBIL ([…], time 14 day) was 0.058 mg/dL. It also gave a TC ([…], time 14 day) of 81.6 mg/dL, a TG ([…], time 14 day) of 43.8 mg/dL and a TP ([…], time 14 day) of 5.8 g/dL. The gamma-GTP ([…], time 14 day) was 1 IU/L, the A/G ([…], time 28 day) was 0.8 and the ALP ([…], time 28 day) was 458.6 IU/L. The ALT ([…], time 28 day) was 26.8 IU/L, the AST ([…], time 28 day) was 43.6 IU/L and the BUN ([…], time 28 day) was 14.2 mg/dL. For the same compound, the CRE ([…], time 28 day) was 0.2 mg/dL, the Ca ([…], time 28 day) was 10.5 mg/dL and the Cl ([…], time 28 day) was 105 meq/L. The DBIL ([…], time 28 day) was 0.02 mg/dL, the GLC ([…], time 28 day) was 162.4 mg/dL and the IP ([…], time 28 day) was 6.5 mg/dL. The K ([…], time 28 day) was 4 meq/L, the LDH ([…], time 28 day) was 70.4 IU/L and the Na ([…], time 28 day) was 144 meq/L. For the same compound, the PL ([…], time 28 day) was 137.6 mg/dL, the RALB ([…], time 28 day) was 2.7 g/dL and the TBIL ([…], time 28 day) was 0.1 mg/dL. The TC ([…], time 28 day) was 77.2 mg/dL, the TG ([…], time 28 day) was 45.4 mg/dL and the TP ([…], time 28 day) was 5.9 g/dL. For the same compound, the gamma-GTP ([…], time 28 day) was 1.6 IU/L.
